Experimental findings from patent publication US20240368118A1, “CEREBLON BINDING COMPOUNDS, COMPOSITIONS THEREOF, AND METHODS OF TREATMENT THEREWITH” (CELGENE CORPORATION, priority 2021, published 2024) are described below.

Structures can show the parent of a compound that is named as a salt.

The target of this assay is T1, AR (Homo sapiens, UniProt P10275).
T1 construct: endogenous in cells; host or cells: VCaP cells
T1 sequence (P10275 1-920): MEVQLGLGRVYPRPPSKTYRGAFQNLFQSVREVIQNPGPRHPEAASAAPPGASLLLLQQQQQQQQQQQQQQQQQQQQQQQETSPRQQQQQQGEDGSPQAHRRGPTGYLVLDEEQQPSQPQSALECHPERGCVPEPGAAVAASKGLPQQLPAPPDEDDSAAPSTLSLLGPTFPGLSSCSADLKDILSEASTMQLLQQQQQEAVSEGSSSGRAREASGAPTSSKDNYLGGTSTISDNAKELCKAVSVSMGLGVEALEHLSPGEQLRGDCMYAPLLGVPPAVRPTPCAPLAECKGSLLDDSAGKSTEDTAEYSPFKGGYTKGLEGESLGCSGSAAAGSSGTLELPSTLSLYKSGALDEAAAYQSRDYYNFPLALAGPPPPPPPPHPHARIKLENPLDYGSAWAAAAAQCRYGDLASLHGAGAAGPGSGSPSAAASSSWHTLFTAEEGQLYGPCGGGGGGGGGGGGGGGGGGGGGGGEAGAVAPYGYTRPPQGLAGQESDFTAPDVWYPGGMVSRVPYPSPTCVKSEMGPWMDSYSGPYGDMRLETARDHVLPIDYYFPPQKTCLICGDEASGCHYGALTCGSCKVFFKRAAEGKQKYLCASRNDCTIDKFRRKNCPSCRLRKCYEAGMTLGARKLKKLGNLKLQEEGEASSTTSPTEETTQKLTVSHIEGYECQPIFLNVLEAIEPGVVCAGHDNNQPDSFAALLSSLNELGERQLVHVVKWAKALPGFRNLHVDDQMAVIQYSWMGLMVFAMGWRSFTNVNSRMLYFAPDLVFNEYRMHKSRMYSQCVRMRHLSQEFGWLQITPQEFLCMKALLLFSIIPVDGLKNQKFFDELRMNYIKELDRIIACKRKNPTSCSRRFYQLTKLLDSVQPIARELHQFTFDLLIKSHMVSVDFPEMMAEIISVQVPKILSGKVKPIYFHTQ
In words: VCAP AR Degradation Assay. Type of assay: cell-based. The settings on record: VCaP cells, 24 h; for DC50: AR ELISA, concentration when AR level = 50% of DMSO control; for Ymin: lowest AR level normalized to DMSO control. A digest of the protocol:
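VCaP cells in DMEM with 8% FBS treated 24 h at 37° C with a 10-point 1:3 series (top 5 μM final; 0.1% DMSO control). Total AR measured in lysates by sandwich ELISA and normalized to DMSO; DC50/EC50 from four-parameter logistic fit, with the lowest normalized AR level reported as Y.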

`CC1(C)C(=O)N(c2cnc(C#N)c(C(F)(F)F)c2)C(=S)N1[C@H]1CC[C@H](OCCC2CCN(CC(=O)Nc3ccc(C4CCC(=O)NC4=O)cc3)CC2(F)F)CC1` (stereo partly drawn) [Cmpd 44, 2-(4-(2-(((trans)-4-(3-(6-Cyano-5-(trifluoromethyl)pyridin-3-yl)-5,5-dimethyl-4-oxo-2-thioxoimidazolidin-1-yl)cyclohexyl)oxy)ethyl)-3,3-difluoropiperidin-1-yl)-N-(4-(2,6-dioxopiperidin-3-yl)phenyl)acetamide] had a DC50 of at most 5 nM. For the same compound, where the note is “given as numbers”, the Ymin is recorded as 12 % of DMSO control.

Compound `C[C@@H]1CN(CCCO[C@H]2CC[C@H](N3C(=S)N(c4cnc(C#N)c(C(F)(F)F)c4)C(=O)C3(C)C)CC2)C[C@H](C)N1CC(=O)Nc1ccc(C2CCC(=O)NC2=O)cc1` (stereo partly drawn) [Cmpd 13, 2-((2R,6S)-4-(3-((trans-4-(3-(6-Cyano-5-(trifluoromethyl)pyridin-3-yl)-5,5-dimethyl-4-oxo-2-thioxoimidazolidin-1-yl)cyclohexyl)oxy)propyl)-2,6-dimethylpiperazin-1-yl)-N-(4-(2,6-dioxopiperidin-3-yl)phenyl)acetamide hydrochloride] displayed a DC50 of at most 5 nM. Further, for the setting “class symbols”, the Ymin entry is given as “** (20%<Y≤30%)”.

With `C[C@@H]1CN(CCO[C@H]2CC[C@H](N3C(=S)N(c4ccc(C#N)c(C(F)(F)F)c4)C(=O)C3(C)C)CC2)C[C@H](C)N1CC(=O)Nc1ccc(C2(C)CCC(=O)NC2=O)cc1` (single isomer, unassigned) [Cmpd 10, hydrochloride], the DC50 is 100 to 10000 nM. Also, the Ymin result (class symbols) is “*** (30%<Y<80%)”.

The compound `C[C@@H]1CN(CCCO[C@H]2CC[C@H](N3C(=S)N(c4ccc(C#N)c(C(F)(F)F)c4)C(=O)C3(C)C)CC2)C[C@H](C)N1CC(=O)Nc1cccc(C2CCC(=O)NC2=O)c1` (stereo partly drawn) [Cmpd 20, 2-((2R,6S)-4-(3-((trans-4-(3-(4-Cyano-3-(trifluoromethyl)phenyl)-5,5-dimethyl-4-oxo-2-thioxoimidazolidin-1-yl)cyclohexyl)oxy)propyl)-2,6-dimethylpiperazin-1-yl)-N-(3-(2,6-dioxopiperidin-3-yl)phenyl)acetamide hydrochloride] yielded a DC50 of at most 5 nM. In addition, the Ymin result (class symbols) was “** (20%<Y≤30%)”.

The compound `C[C@@H]1CN(CCO[C@H]2CC[C@H](N3C(=S)N(c4ccc(C#N)c(Cl)c4)C(=O)C3(C)C)CC2)C[C@H](C)N1CC(=O)Nc1ccc(C2CCC(=O)NC2=O)cc1` (stereo partly drawn) [Cmpd 4, 2-((2R,6S)-4-(2-((trans-4-(3-(3-Chloro-4-cyanophenyl)-5,5-dimethyl-4-oxo-2-thioxoimidazolidin-1-yl)cyclohexyl)oxy)ethyl)-2,6-dimethylpiperazin-1-yl)-N-(4-(2,6-dioxopiperidin-3-yl)phenyl)acetamide hydrochloride] displayed a DC50 of at most 5 nM. Also, the Ymin result (class symbols) was “*** (30%<Y<80%)”.

For `C[C@@H]1CN(CCO[C@H]2CC[C@H](N3C(=S)N(c4ccc(C#N)c(C(F)(F)F)c4)C(=O)C3(C)C)CC2)C[C@H](C)N1CC(=O)Nc1ccc(C2CCC(=O)NC2=O)cc1` (stereo partly drawn) [Cmpd 2, 2-((2S,6R)-4-(2-((trans-4-(3-(4-Cyano-3-(trifluoromethyl)phenyl)-5,5-dimethyl-4-oxo-2-thioxoimidazolidin-1-yl)cyclohexyl)oxy)ethyl)-2,6-dimethylpiperazin-1-yl)-N-(4-(2,6-dioxopiperidin-3-yl)phenyl)acetamide hydrochloride], the DC50 lay in the range of 5 to 15 nM. Moreover, where the note is “class symbols”, the Ymin entry was “*** (30%<Y<80%)”.

Take `C[C@@H]1CN(CCO[C@H]2CC[C@H](N3C(=S)N(c4cnc(C#N)c(Cl)c4)C(=O)C3(C)C)CC2)C[C@H](C)N1CC(=O)Nc1ccc(C2CCC(=O)NC2=O)cc1` (stereo partly drawn) [Cmpd 11, 2-((2R,6S)-4-(2-((trans-4-(3-(5-Chloro-6-cyanopyridin-3-yl)-5,5-dimethyl-4-oxo-2-thioxoimidazolidin-1-yl)cyclohexyl)oxy)ethyl)-2,6-dimethylpiperazin-1-yl)-N-(4-(2,6-dioxopiperidin-3-yl)phenyl)acetamide hydrochloride]: the DC50 was at most 5 nM. The Ymin result (class symbols) was “** (20%<Y≤30%)”.

Compound `C[C@@H]1CN(CCC[C@H]2CC[C@H](N3C(=S)N(c4cnc(C#N)c(C(F)(F)F)c4)C(=O)C3(C)C)CC2)C[C@H](C)N1CC(=O)Nc1ccc(C2CCC(=O)NC2=O)cc1` (stereo partly drawn) [Cmpd 15, 2-((2R,6S)-4-(3-(trans-4-(3-(6-Cyano-5-(trifluoromethyl)pyridin-3-yl)-5,5-dimethyl-4-oxo-2-thioxoimidazolidin-1-yl)cyclohexyl)propyl)-2,6-dimethylpiperazin-1-yl)-N-(4-(2,6-dioxopiperidin-3-yl)phenyl)acetamide hydrochloride] had a DC50 of at most 5 nM. Under “class symbols”, the Ymin entry is listed as “** (20%<Y≤30%)”.

Compound `CC1(C)C(=O)N(c2ccc(C#N)c(C(F)(F)F)c2)C(=S)N1[C@H]1CC[C@H](CCCN2CCN(CC(=O)Nc3ccc(C4CCC(=O)NC4=O)cc3)[C@@H](C(F)(F)F)C2)CC1` (stereo partly drawn) [Cmpd 36, 2-((R)-4-(3-((trans)-4-(3-(4-Cyano-3-(trifluoromethyl)phenyl)-5,5-dimethyl-4-oxo-2-thioxoimidazolidin-1-yl)cyclohexyl)propyl)-2-(trifluoromethyl)piperazin-1-yl)-N-(4-(2,6-dioxopiperidin-3-yl)phenyl)acetamide] came in with a half-maximal degradation concentration (DC50) of 15 to 100 nM. Moreover, for the setting “given as numbers”, the Ymin is 24 % of DMSO control.

`C[C@@H]1CN(CCCO[C@H]2CC[C@H](N3C(=S)N(c4ccc(C#N)c(Cl)c4)C(=O)C3(C)C)CC2)C[C@H](C)N1CC(=O)Nc1ccc(C2CCC(=O)NC2=O)cc1` (stereo partly drawn) [Cmpd 14, 2-((2R,6S)-4-(3-((trans-4-(3-(3-Chloro-4-cyanophenyl)-5,5-dimethyl-4-oxo-2-thioxoimidazolidin-1-yl)cyclohexyl)oxy)propyl)-2,6-dimethylpiperazin-1-yl)-N-(4-(2,6-dioxopiperidin-3-yl)phenyl)acetamide hydrochloride] gave a DC50 of at most 5 nM. Also, the Ymin entry (class symbols) is recorded as “* (0<Y≤20%)”.

Compound `CC[C@]1(c2ccc(NC(=O)CN3[C@H](C)CN(CCO[C@H]4CC[C@H](N5C(=S)N(c6ccc(C#N)c(C(F)(F)F)c6)C(=O)C5(C)C)CC4)C[C@@H]3C)cc2)CCC(=O)NC1=O` [Cmpd 7, 2-((2S,6R)-4-(2-((trans-4-(3-(4-Cyano-3-(trifluoromethyl)phenyl)-5,5-dimethyl-4-oxo-2-thioxoimidazolidin-1-yl)cyclohexyl)oxy)ethyl)-2,6-dimethylpiperazin-1-yl)-N-(4-((R)-3-ethyl-2,6-dioxopiperidin-3-yl)phenyl)acetamide hydrochloride] displayed a 50% degradation concentration (DC50) of 100 to 10000 nM. In addition, the Ymin entry (class symbols) was “*** (30%<Y<80%)”.

`C[C@@H]1CN(CCO[C@H]2CC[C@H](N3C(=S)N(c4ccc(C#N)c(C(F)(F)F)c4)C(=O)C3(C)C)CC2)C[C@H](C)N1CCC(=O)Nc1ccc(C2CCC(=O)NC2=O)cc1` (stereo partly drawn) [Cmpd 5, 3-((2R,6S)-4-(2-((trans-4-(3-(4-Cyano-3-(trifluoromethyl)phenyl)-5,5-dimethyl-4-oxo-2-thioxoimidazolidin-1-yl)cyclohexyl)oxy)ethyl)-2,6-dimethylpiperazin-1-yl)-N-(4-(2,6-dioxopiperidin-3-yl)phenyl)propanamide] yielded a DC50 of 5 to 15 nM. Besides, the Ymin entry (class symbols) is “*** (30%<Y<80%)”.

`C[C@@H]1CN(CCO[C@H]2CC[C@H](N3C(=S)N(c4ccc(C#N)c(C(F)(F)F)c4)C(=O)C3(C)C)CC2)C[C@H](C)N1CC(=O)Nc1ccc(C2(C)CCC(=O)NC2=O)cc1` (single isomer, unassigned) [Cmpd 9, hydrochloride] returned a DC50 of 100 to 10000 nM. Also, the Ymin result (class symbols) is on record as “*** (30%<Y<80%)”.

In the case of `CC[C@@]1(c2ccc(NC(=O)CN3[C@H](C)CN(CCO[C@H]4CC[C@H](N5C(=S)N(c6ccc(C#N)c(C(F)(F)F)c6)C(=O)C5(C)C)CC4)C[C@@H]3C)cc2)CCC(=O)NC1=O` [Cmpd 8, 2-((2S,6R)-4-(2-((trans-4-(3-(4-Cyano-3-(trifluoromethyl)phenyl)-5,5-dimethyl-4-oxo-2-thioxoimidazolidin-1-yl)cyclohexyl)oxy)ethyl)-2,6-dimethylpiperazin-1-yl)-N-(4-((S)-3-ethyl-2,6-dioxopiperidin-3-yl)phenyl)acetamide hydrochloride], the DC50 was 100 to 10000 nM. Besides, the Ymin entry (class symbols) was “*** (30%<Y<80%)”.
